Experimental data from ChEMBL document CHEMBL1130738, “Rational design of boropeptide thrombin inhibitors: beta, beta-dialkyl-phenethylglycine P2 analogs of DuP 714 with greater selectivity over complement factor I and an improved safety profile” (Bioorg Med Chem Lett, 1998).
The source made the active and inactive calls. The rule behind the calls is not given here.

Legend:
[1] = Inhibition of Coagulation factor I.
[2] = test system: Rattus norvegicus; assay: Alanine transaminase level was measured in rats after administration intravenously at a dose(bolus) of 20 umol/kg; assay type: functional, organism-based; set-up: unit not given here
[3] = Selectivity ratio for binding to factor I (IC50) and thrombin (Ki)
[4] = target: Thrombin and coagulation factor X (Homo sapiens) (UniProt P00734+P00742); assay: Selectivity ratio for binding to factor Xa (Ki) and thrombin (Ki); assay type: protein assay
Thrombin and coagulation factor X (Homo sapiens), sequence (P00742 whole entry, looked up, other chains not shown): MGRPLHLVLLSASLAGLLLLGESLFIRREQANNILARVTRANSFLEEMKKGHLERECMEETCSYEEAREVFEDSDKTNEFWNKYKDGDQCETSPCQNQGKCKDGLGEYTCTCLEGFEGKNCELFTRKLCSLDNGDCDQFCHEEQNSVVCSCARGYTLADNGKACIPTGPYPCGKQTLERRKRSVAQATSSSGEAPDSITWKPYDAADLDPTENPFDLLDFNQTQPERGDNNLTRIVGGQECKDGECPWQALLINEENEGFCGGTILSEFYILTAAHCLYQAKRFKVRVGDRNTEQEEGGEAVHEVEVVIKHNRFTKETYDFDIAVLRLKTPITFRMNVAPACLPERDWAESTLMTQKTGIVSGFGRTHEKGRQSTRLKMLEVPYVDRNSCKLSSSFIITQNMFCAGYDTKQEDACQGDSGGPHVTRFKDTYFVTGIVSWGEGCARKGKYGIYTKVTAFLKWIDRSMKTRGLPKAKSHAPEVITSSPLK

[5] = target: Coagulation factor X (Homo sapiens, UniProt P00742); assay: Binding affinity towards coagulation factor Xa.
Coagulation factor X, sequence (P00742 41-179 limits assumed): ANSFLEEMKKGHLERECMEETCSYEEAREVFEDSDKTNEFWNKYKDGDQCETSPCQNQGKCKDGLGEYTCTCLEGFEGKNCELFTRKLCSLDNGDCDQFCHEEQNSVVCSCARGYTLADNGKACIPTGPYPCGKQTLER
Coagulation factor X, sequence (P00742 235-488 limits assumed): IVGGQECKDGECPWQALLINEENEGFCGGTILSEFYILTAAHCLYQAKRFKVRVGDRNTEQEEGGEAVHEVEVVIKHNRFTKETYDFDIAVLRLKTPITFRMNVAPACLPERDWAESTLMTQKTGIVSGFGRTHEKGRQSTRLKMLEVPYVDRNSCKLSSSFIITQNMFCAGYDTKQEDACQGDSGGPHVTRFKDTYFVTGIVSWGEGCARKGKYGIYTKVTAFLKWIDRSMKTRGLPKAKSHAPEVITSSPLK

[6] = target: Prothrombin (Homo sapiens, UniProt P00734); assay: Binding affinity towards thrombin was tested.
[7] = test system: Rattus norvegicus; assay: Effect of factor I selectivity on hypotension was evaluated in rats after administration intravenously at a dose(bolus) of 20umol/Kg, activity expressed as drop in blood pressure; No effect; assay type: functional, organism-based
[8] = test system: Rattus norvegicus; assay: Effect of factor I selectivity on hypotension was evaluated in rats after administration intravenously at a dose(bolus) of 20umol/Kg, activity expressed as drop in blood pressure; assay type: functional
[9] = test system: Rattus norvegicus; assay: Effect of factor I selectivity on hypotension was evaluated in rats after administration intravenously at a dose(bolus) of 2 umol/kg; assay type: functional

| SMILES | IC50 [1] | Level [2] | Ratio [3] | Ratio [4] | Ki [5] | Ki [6] | BP [7] | BP [8] | BP [9] |
| --- | --- | --- | --- | --- | --- | --- | --- | --- | --- |
| N/C=N/CCCC(NC(=O)CN(CC1(c2ccccc2)CCCC1)C(=O)CCc1ccccc1)B(O)O (stereo unspecified) | > 50000 nM | 60 | > 16700 | 210 | – | – | – | – | – |
| N/C=N/CCCC(NC(=O)CN(CC1(c2ccccc2)CC1)C(=O)CCc1ccccc1)B(O)O (stereo unspecified) | 7700 nM | 66 | 9280 | 361 | – | – | – | – | – |
| Cc1cc(C)cc(CCN(CC(=O)NC(CCCCN)B(O)O)C(=O)CCc2ccccc2)c1 (stereo unspecified) | 170 nM | – | 607 | 193 | 54 nM | 0.28 nM | – | – | – |
| NCCCCC(NC(=O)CN(CC1(c2ccccc2)CCCC1)C(=O)CCc1ccccc1)B(O)O (stereo unspecified) | 19000 nM | 66 | 7920 | 579 | 1390 nM | 2.4 nM | – | – | – |
| N/C=N/CCCC(NC(=O)CN(CCc1ccccc1)C(=O)CCc1ccccc1)B(O)O (stereo unspecified) | 2730 nM | 55 | 3070 | 25 | – | – | – | – | – |
| Cc1cc(C)cc(C(C)(C)CN(CC(=O)NC(CCC/N=C/N)B(O)O)C(=O)CCc2ccccc2)c1 (stereo unspecified) | 2390 nM | 70 | 4510 | 740 | 392 nM | 0.53 nM | – | – | – |
| Cc1cc(C)cc(CCN(CC(=O)NC(CCCNC=N)B(O)O)C(=O)CCc2ccccc2)c1 (stereo unspecified) | – | – | – | – | 30 nM | 0.37 nM | – | – | – |
| NCCCCC(NC(=O)CN(CC1(c2ccccc2)CC1)C(=O)CCc1ccccc1)B(O)O (stereo unspecified) | 4300 nM | 60 | 10000 | 1020 | 438 nM | 0.43 nM | – | – | – |
| Cc1cc(C)cc(C(C)(C)CN(CC(=O)NC(CCCCN)B(O)O)C(=O)CCc2ccccc2)c1 (stereo unspecified) | 2450 nM | 78 | 5980 | 1980 | 810 nM | 0.41 nM | – | – | – |
| Cc1cc(C)cc(C(C)(C)CN(CC(=O)NC(CCCN=C(N)N)B(O)O)C(=O)CCc2ccccc2)c1 (stereo unspecified) | 320 nM | – | 1070 | 207 | 62 nM | 0.3 nM | – | – | – |
| CC(=O)N[C@H](Cc1ccccc1)C(=O)N1CCC[C@H]1C(=O)N[C@@H](CCCN=C(N)N)B(O)O.Cl | 10 nM | – | – | – | – | – | – | – | >40 mmHg |
| Cc1cc(C)cc(CCN(CC(=O)NC(CCC/N=C/N)B(O)O)C(=O)CCc2ccccc2)c1 (stereo unspecified) | 400 nM | – | 1080 | 81 | – | – | – | – | – |
| N=CNCCCC(NC(=O)CN(CC1(c2ccccc2)CCCC1)C(=O)CCc1ccccc1)B(O)O (stereo unspecified) | – | – | – | – | 630 nM | 3 nM | – | – | – |
| N=CNCCCC(NC(=O)CN(CC1(c2ccccc2)CC1)C(=O)CCc1ccccc1)B(O)O (stereo unspecified) | – | – | – | – | 300 nM | 0.83 nM | – | – | – |
| Cc1cc(C)cc(CCN(CC(=O)NC(CCCN=C(N)N)B(O)O)C(=O)CCc2ccccc2)c1 (stereo unspecified) | < 40 nM | – | < 69 | 26 | – | – | – | – | – |

More lines, main results first:

| IC50 [1] | Level [2] | Ratio [3] | Ratio [4] | Ki [5] | Ki [6] | SMILES | BP [7] | BP [8] | BP [9] |
| --- | --- | --- | --- | --- | --- | --- | --- | --- | --- |
| 1500 nM | 60 | 3570 | 310 | 130 nM | 0.42 nM | NCCCCC(NC(=O)CN(CCc1ccccc1)C(=O)CCc1ccccc1)B(O)O (stereo unspecified) | – | – | – |
| 540 nM | 89 | 9000 | 767 | 46 nM | 0.06 nM | N=C(N)NCCCC(NC(=O)CN(CC1(c2ccccc2)CC1)C(=O)CCc1ccccc1)B(O)O (stereo unspecified) | inactive | – | – |
| 130 nM | 211 | 2170 | 1650 | – | – | CC(C)(CN(CC(=O)NC(CCCN=C(N)N)B(O)O)C(=O)CCc1ccccc1)c1ccccc1 (stereo unspecified) | – | >40 mmHg | – |
| 1300 nM | 53 | 3610 | 889 | 320 nM | 0.36 nM | CC(C)(CN(CC(=O)NC(CCCCN)B(O)O)C(=O)CCc1ccccc1)c1ccccc1 (stereo unspecified) | – | – | – |
| – | – | – | – | 80 nM | 1.2 nM | CC(C)(CN(CC(=O)NC(CCCNC=N)B(O)O)C(=O)CCc1ccccc1)c1ccccc1 (stereo unspecified) | – | – | – |
| – | – | – | – | 99 nM | 0.06 nM | CC(C)(CN(CC(=O)NC(CCCNC(=N)N)B(O)O)C(=O)CCc1ccccc1)c1ccccc1 (stereo unspecified) | – | – | – |
| 6900 nM | 70 | 5750 | 67 | – | – | CC(C)(CN(CC(=O)NC(CCC/N=C/N)B(O)O)C(=O)CCc1ccccc1)c1ccccc1 (stereo unspecified) | – | – | – |
| – | – | – | – | 15 nM | 0.58 nM | Cc1cc(C)cc(CCN(CC(=O)NC(CCCNC(=N)N)B(O)O)C(=O)CCc2ccccc2)c1 (stereo unspecified) | – | – | – |
| – | – | – | – | 22 nM | 0.89 nM | N=CNCCCC(NC(=O)CN(CCc1ccccc1)C(=O)CCc1ccccc1)B(O)O (stereo unspecified) | – | – | – |
